Counter-ions that a name gives are not always drawn.
Tests used:
[1] = target: T1, α1G T-type calcium channel (Homo sapiens, UniProt O43497); test: Assay for % inhibiting activity against T-type calcium channel using FDSS6000; assay type: cell-based; conditions: HEK293 cells expressing α1G; for inhibition at 10 µM: HEK293, 10 μM
T1 construct: host or cells: HEK293
Experimental: In the present invention, in order to search an efficient inhibitor against T-type calcium channel, a primary assay for T-type calcium channel inhibiting activity was conducted by a high-efficient assay using FDSS6000, wherein mammal HEK293 cell lines (originated from human kidney carcinoma cells) which specifically expresses α1G of T-type calcium channel was used for primary assay. Through the primary assay, compounds which show meaningful inhibition effects were selected. The selected compounds were used in a second assay for T-type calcium channel inhibiting activity using electrophysiological whole cell patch clamp method, wherein mammal HEK293 cell lines (originated from human kidney carcinoma cells) which specifically expresses α1G of T-type calcium channel was used for the second assay.
At 12-24 hours before being used for this assay, cells of HEK293 cell line (α1G cell line: KCTC 10519BP, Korean Collection for Type Cultures), which stably express α1G T-type calcium channel and Kir2.1, were sub-cultured in a poly-L-lysine treated 96-well plate with the density of 4×10^4 per a well using a 96-well cell dispenser (Titertek). On the of assay, the 96-well plate to which the cells were attached were washed three times with HEPES buffer solution (150 mM of NaCl, 5 mM of KCl, 1 mM of MgCl2, 2 mM of CaCl2, 10 mM of HEPES, 10 mM of glucose; pH 7.4) using a 96-well plate automatic washing device (Bio Tek), then reacted with HEPES buffer solution containing 5 μM fluo-3/AM and 0.001% Pluronic F-127 under room temperature for 1 hour, to label with fluorescent dye, and then further washed two times with HEPES buffer solution.
Thereafter, at 10 minutes before the measurement using device FDSS6000, a washing with HEPES buffer solution containing 10 mM CaCl2 was conducted once more, and the final volume was adjusted to 81 μl. Besides the above 96-well plate containing the cells, additional two drug 96-well plates were provided, wherein the 96-well plates contain inhibiting drug and KCl (final concentration: 75 mM) for activating T-type calcium channel, respectively. Since most of cell-based HTS devices are equipped with a liquid application system for injection of drug, but have no liquid sucking system, the inhibiting drug to be tested and KCl were respectively provided at the five-times higher concentration in 10 mM CaCl2 HEPES buffer solution at the amount of 27 μl, diluted five-times at the final cell plate volume of 135 μl, and then used in this test. The concrete method of measurement using FDSS6000 was as follows: After recording the reference value of 20 seconds, the change of intracellular Ca^2+ concentration which induced by treatment of the inhibiting drug to be tested for 75 seconds followed by administration of KCl was measured, wherein the percentage (%) inhibition effect of the test drug, through estimating the area of ratio value of 340/380 in the control without treatment of the test drug as 100%. As a reference drug, mibefradil was used.
For accurate calcium-imagination, the light source of 4 xenon lamps in FDSS6000 were radiated to make the cells exposed selectively to the excitation wavelength (340 nm and 380 nm) by computer-controlled filter wheel. Data was obtained at interval of each 1.23 second. The emitter fluorescence light inflowed through long-pass filter was obtained as an average 340/380 ratio value for each well in the 96-wells by using CCD camera and digital fluorescence analyzer in FDSS6000. All image data and analyses were obtained by using FDSS6000-exclusive program provide from Hamamatsu Photonics.

[2] = Table 4 (Chemical Formula 3 series)
[3] = Table 3 (Chemical Formula 2 series)
[4] = Table 3 (Chemical Formula 2 series), hydrochloride

T1 sequence (O43497 whole entry): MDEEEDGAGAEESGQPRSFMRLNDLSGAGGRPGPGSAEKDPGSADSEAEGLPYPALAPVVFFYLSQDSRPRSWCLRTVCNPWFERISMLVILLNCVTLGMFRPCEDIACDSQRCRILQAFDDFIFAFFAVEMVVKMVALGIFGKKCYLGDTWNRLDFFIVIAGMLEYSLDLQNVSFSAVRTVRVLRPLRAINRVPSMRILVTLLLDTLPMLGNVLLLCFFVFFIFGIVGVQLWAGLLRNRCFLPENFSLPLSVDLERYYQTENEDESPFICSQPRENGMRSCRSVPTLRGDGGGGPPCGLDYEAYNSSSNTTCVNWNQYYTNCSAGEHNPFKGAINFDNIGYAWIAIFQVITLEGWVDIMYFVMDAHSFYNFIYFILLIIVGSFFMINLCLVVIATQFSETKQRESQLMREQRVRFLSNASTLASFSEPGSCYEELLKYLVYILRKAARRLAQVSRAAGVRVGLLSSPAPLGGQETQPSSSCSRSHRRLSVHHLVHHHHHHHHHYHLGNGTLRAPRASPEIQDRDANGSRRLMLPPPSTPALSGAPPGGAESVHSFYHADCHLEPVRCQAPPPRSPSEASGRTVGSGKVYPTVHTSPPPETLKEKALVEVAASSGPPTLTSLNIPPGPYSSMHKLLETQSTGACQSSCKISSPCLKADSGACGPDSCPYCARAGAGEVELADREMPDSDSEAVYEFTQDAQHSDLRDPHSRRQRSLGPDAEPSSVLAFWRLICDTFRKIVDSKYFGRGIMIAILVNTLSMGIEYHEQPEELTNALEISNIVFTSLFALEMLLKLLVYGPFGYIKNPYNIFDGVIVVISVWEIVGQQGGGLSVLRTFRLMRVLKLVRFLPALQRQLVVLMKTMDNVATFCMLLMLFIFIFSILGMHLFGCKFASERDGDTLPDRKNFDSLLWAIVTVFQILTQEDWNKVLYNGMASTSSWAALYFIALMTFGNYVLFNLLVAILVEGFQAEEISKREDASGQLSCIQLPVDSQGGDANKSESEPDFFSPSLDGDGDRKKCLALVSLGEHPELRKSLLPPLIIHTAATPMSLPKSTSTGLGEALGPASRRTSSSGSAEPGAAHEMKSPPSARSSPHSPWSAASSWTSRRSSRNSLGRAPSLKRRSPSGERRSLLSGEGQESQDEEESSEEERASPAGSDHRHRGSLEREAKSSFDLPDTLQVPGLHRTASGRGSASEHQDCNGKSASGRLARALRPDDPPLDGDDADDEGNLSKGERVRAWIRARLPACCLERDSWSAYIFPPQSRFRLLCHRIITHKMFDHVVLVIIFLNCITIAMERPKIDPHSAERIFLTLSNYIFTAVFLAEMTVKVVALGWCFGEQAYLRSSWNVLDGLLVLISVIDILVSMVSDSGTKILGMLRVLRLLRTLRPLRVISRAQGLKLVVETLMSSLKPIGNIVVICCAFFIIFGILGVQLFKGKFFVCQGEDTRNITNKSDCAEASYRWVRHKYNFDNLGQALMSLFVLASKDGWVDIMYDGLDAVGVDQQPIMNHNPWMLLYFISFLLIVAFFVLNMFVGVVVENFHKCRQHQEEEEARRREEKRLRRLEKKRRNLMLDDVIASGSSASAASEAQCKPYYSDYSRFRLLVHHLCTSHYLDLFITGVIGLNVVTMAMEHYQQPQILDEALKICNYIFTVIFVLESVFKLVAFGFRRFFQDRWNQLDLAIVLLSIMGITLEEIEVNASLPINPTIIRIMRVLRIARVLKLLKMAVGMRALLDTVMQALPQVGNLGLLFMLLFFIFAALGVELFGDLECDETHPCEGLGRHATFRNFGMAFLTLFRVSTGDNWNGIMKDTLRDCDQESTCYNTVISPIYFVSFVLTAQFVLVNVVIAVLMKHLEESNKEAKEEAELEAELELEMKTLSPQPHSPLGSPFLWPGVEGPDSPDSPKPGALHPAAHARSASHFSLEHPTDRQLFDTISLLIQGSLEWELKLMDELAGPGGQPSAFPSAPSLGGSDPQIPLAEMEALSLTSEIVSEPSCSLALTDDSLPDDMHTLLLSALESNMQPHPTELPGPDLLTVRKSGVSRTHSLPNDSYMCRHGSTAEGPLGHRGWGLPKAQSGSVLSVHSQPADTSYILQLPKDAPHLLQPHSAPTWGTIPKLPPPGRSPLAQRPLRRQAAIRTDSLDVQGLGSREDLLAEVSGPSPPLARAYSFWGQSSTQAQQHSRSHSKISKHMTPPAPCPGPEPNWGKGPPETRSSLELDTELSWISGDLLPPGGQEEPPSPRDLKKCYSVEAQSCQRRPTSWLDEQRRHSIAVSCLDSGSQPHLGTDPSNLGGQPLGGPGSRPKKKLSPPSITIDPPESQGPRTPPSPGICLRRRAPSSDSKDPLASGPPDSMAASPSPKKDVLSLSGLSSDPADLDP

Row | SMILES | inhibition at 10 µM [1, 3] | further results
1 | Br.NC(N)=Nc1nc(-c2cc(F)ccc2F)cs1 [KHG24391, 2-(4-(2,5-difluorophenyl)thiazole-2-yl)guanidine hydrobromide] | – | inhibition at 10 µM [1, 2]: 20.8%; melting point: 252.1 °C
2 | Cc1nc(N=C(N)N)sc1Cc1ccc(F)cc1.Cl | – | melting point: 245.6 °C
3 | Cc1ccc(NC(=O)Cc2csc(N=C(N)N)n2)cc1.Cl [KHG23175, 2-(2-(diaminomethyleneamino)thiazole-4-yl)-N-p-tolylacetamide hydrochloride] | 23.8% | melting point: 236.2 to 238.3 °C
4 | NC(N)=Nc1nc(CC(=O)Nc2ccc([N+](=O)[O-])cc2)cs1 [KHG23380, 2-(2-(diaminomethyleneamino)thiazole-4-yl)-N-(4-nitrophenyl)acetamide hydrochloride] | 11.4% | –
5 | Br.NC(N)=Nc1nc(-c2ccc(Cl)cc2Cl)cs1 [KHG24379, 2-(4-(2,4-dichlorophenyl)thiazole-2-yl)guanidine hydrobromide] | – | inhibition at 10 µM [1, 2]: 16.8%; melting point: 173 °C
6 | Cc1ccc(NC(=O)Cc2csc(N=C(N)N)n2)cc1Cl.Cl [KHG23397, N-(3-chloro-4-methylphenyl)-2-(2-(diaminomethyleneamino)thiazole-4-yl)acetamide hydrochloride] | – | % Inhibition [α1G, 10 μM) using FDSS6000 [1, 4]: 14.2%
7 | Cl.NC(N)=Nc1nc(CC(=O)Nc2cc(Cl)ccc2F)cs1 [KHG23172, N-(5-chloro-2-fluorophenyl)-2-(2-(diaminomethyleneamino)thiazole-4-yl)acetamide hydrochloride] | 27.6% | melting point: 209.3 to 210 °C
8 | Br.NC(N)=Nc1nc(-c2cccc(F)c2)cs1 [KHG24383, 2-(4-(3-fluorophenyl)thiazole-2-yl)guanidine hydrobromide] | – | inhibition at 10 µM [1, 2]: 21.6%; melting point: 242.1 °C
9 | NC(N)=Nc1nc(-c2ccc3[nH]c(=O)oc3c2)cs1 [KHG24022, 2-(4-(2-oxo-2,3-dihydrobenzo[d]oxazole-6-yl)thiazole-2-yl)guanidine hydrochloride] | – | inhibition at 10 µM [1, 2]: 10.1%
10 | NC(N)=Nc1nc(CC(=O)Nc2ccc(Oc3ccccc3)cc2)cs1 [KHG23389, 2-(2-(diaminomethyleneamino)thiazole-4-yl)-N-(4-phenoxyphenyl)acetamide hydrochloride] | 25.4% | –
11 | NC(N)=Nc1nc(-c2ccc3ccccc3c2)cs1 [KHG24039, 2-(4-(naphthalene-2-yl)thiazole-2-yl)guanidine hydrochloride] | – | inhibition at 10 µM [1, 2]: 21.9%
12 | CC(C)c1ccc(NC(=O)Cc2csc(N=C(N)N)n2)cc1 [KHG23379, 2-(2-(diaminomethyleneamino)thiazole-4-yl)-N-(4-isopropylphenyl)acetamide hydrochloride] | 14.7% | –
13 | CCCCCCc1ccc(NC(=O)Cc2csc(N=C(N)N)n2)cc1 [KHG23383, 2-(2-(diaminomethyleneamino)thiazole-4-yl)-N-(4-hexylphenyl)acetamide hydrochloride] | 5.7% | –
14 | Cc1ccc(-c2csc(N=C(N)N)n2)cc1 [KHG24040, 2-(4-p-tolylthiazole-2-yl)guanidine hydrobromide] | – | inhibition at 10 µM [1, 2]: 16.2%
15 | COc1ccc(-c2csc(N=C(N)N)n2)cc1 [KHG24041, 2-(4-(4-methoxyphenyl)thiazole-2-yl)guanidine hydrobromide] | – | inhibition at 10 µM [1, 2]: 13.3%
16 | CCOC(=O)c1cccc(NC(=O)Cc2csc(N=C(N)N)n2)c1 [KHG23382, ethyl 3-(2-(2-(diaminomethyleneamino)thiazole-4-yl)acetamido)benzoate hydrochloride] | 24% | –
17 | COc1ccc(NC(=O)Cc2csc(N=C(N)N)n2)cc1F.Cl [KHG23399, 2-(2-(diaminomethyleneamino)thiazole-4-yl)-N-(3-fluoro-4-methoxyphenyl)acetamide hydrochloride] | – | % Inhibition [α1G, 10 μM) using FDSS6000 [1, 4]: 3.4%
18 | CCCCCCCCCCc1ccc(NC(=O)Cc2csc(N=C(N)N)n2)cc1 [KHG23381, N-(4-decylphenyl)-2-(2-(diaminomethyleneamino)thiazole-4-yl)acetamide hydrochloride] | 6.2% | –
19 | NC(N)=Nc1nc(CC(=O)Nc2cc([N+](=O)[O-])ccc2F)cs1 [KHG23168, 2-(2-(diaminomethyleneamino)thiazole-4-yl)-N-(2-fluoro-5-nitrophenyl)acetamide hydrochloride] | 21.6% | –
20 | N#CCc1ccc(NC(=O)Cc2csc(N=C(N)N)n2)cc1 [KHG23387, N-(4-(cyanomethyl)phenyl)-2-(2-(diaminomethyleneamino)thiazole-4-yl)acetamide hydrochloride] | 3.2% | –
21 | Br.NC(N)=Nc1nc(-c2ccc([N+](=O)[O-])cc2)cs1 [KHG24375, 2-(4-(4-nitrophenyl)thiazole-2-yl)guanidine hydrobromide] | – | % Inhibition [α1G, 10 μM) using FDSS6000 ([1]; Table 4 (Chemical Formula 3 series), hydrobromide): 19.90%
22 | CCCCCCc1ccc(NC(=O)Cc2csc(N=C(N)N)n2)cc1.Cl [KHG23386, 2-(2-(diaminomethyleneamino)thiazole-4-yl)-N-(4-hexylphenyl)acetamide hydrochloride] | – | % Inhibition [α1G, 10 μM) using FDSS6000 [1, 4]: 4.5%
23 | NC(N)=Nc1nc(CC(=O)NCCc2ccc(F)cc2)cs1 [KHG23190, 2-(2-(diaminomethyleneamino)thiazole-4-yl)-N-(4-fluorophenethyl)acetamide hydrochloride] | 21% | –
24 | NC(N)=Nc1nc(-c2cc(C(F)(F)F)cc(C(F)(F)F)c2)cs1 [KHG24392, 2-(4-(3,5-bis(trifluoromethyl)phenyl)thiazole-2-yl)guanidine hydrobromide] | – | inhibition at 10 µM [1, 2]: 12.9%
25 | CCCCOc1ccc(NC(=O)Cc2csc(N=C(N)N)n2)cc1 [KHG23384, N-(4-butoxyphenyl)-2-(2-(diaminomethyleneamino)thiazole-4-yl)acetamide hydrochloride] | 6.1% | –
26 | CCOC(=O)c1ccc(NC(=O)Cc2csc(N=C(N)N)n2)cc1 [KHG23385, ethyl 4-(2-(2-(diaminomethyleneamino)thiazole-4-yl)acetamido)benzoate hydrochloride] | 5.9% | –
27 | NC(N)=Nc1nc(-c2ccc([N+](=O)[O-])cc2)cs1 [KHG24389, 2-(4-(4-nitrophenyl)thiazole-2-yl)guanidine hydrobromide] | – | inhibition at 10 µM [1, 2]: 21.9%

The next lines start with results.

Row | inhibition at 10 µM [1, 3] | SMILES | further results
28 | 0.2% | NC(N)=Nc1nc(CC(=O)Nc2c(Cl)cc(OC(F)(F)F)cc2Cl)cs1 [KHG23398, 2-(2-(diaminomethyleneamino)thiazole-4-yl)-N-(2,6-dichloro-4-(trifluoromethoxy)phenyl)acetamide hydrochloride] | –
29 | 2.7% | NC(N)=Nc1nc(CC(=O)Nc2c(Cl)c(Cl)cc(Cl)c2Cl)cs1 [KHG23395, 2-(2-(diaminomethyleneamino)thiazole-4-yl)-N-(2,3,5,6-tetrachlorophenyl)acetamide hydrochloride] | –
30 | 3.8% | COc1ccc(NC(=O)Cc2csc(N=C(N)N)n2)c(C)c1 [KHG23393, 2-(2-(diaminomethyleneamino)thiazole-4-yl)-N-(4-methoxy-2-methylphenyl)acetamide hydrochloride] | –
31 | 0.8% | NC(N)=Nc1nc(CC(=O)Nc2c(Cl)cc(C(F)(F)F)cc2Cl)cs1 [KHG23391, 2-(2-(diaminomethyleneamino)thiazole-4-yl)-N-(2,6-dichloro-4-(trifluoromethyl)phenyl)acetamide hydrochloride] | –
32 | 41.5% | NC(N)=Nc1nc(CC(=O)Nc2cc(C(F)(F)F)cc(C(F)(F)F)c2)cs1 [KHG23394, N-(3,5-bis(trifluoromethyl)phenyl)-2-(2-(diaminomethyleneamino)thiazole-4-yl)acetamide hydrochloride] | –
33 | 22.7% | NC(N)=Nc1nc(CC(=O)Nc2ccc(F)c(F)c2F)cs1 [KHG23392, 2-(2-(diaminomethyleneamino)thiazole-4-yl)-N-(2,3,4-trifluorophenyl)acetamide hydrochloride] | –
